Reference: patent publication US20260224589A1 (priority 2023, published 2026)
Like-named read-outs stand apart in the source and are kept apart here.

Key:
AsPC-1 cells = experiment: phospho-ERK HTRF assay in AsPC-1 cells, 4 h treatment; type: cell-based; details: Homo sapiens, ASPC1
SW-620 = experiment: phospho-ERK HTRF assay in SW-620 cells, 4 h treatment; type: cell-based; details: Homo sapiens, Table 3, read-out: pERK Inhibition SW-620 IC50
[1] = AsPC-1, 4h, Table 1b, read-out: PERK IC50 (AsPC-1, 4h)
[2] = AsPC-1, 4H, Table 1a class column, read-out: pERK IC50 activity range (*)
[3] = AsPC-1, 4H, Table 1a, read-out: PERK IC50 (AsPC-1, 4H)

CN(C)C(=O)c1nn2c(c1Cl)CN(c1nc(OC[C@@]34CCCN3C[C@H](F)C4)nc3c1CO[C@H](c1c(C(F)(F)F)ccc(N)c1F)C3)CCC2 (single isomer, unassigned) [Example 1]
IC50 (AsPC-1 cells; Table 3, read-out: pERK Inhibition AsPC-1 IC50): 12.8 nM | IC50 (SW-620): 14.4 nM

CC#Cc1cc(N)cc([C@@H]2Cc3nc(OC[C@@]45CCCN4C/C(=C\F)C5)nc(N4CCCn5nc(C(=O)N6CCCC6)c(C)c5C4)c3CO2)c1C(F)(F)F [compound 429]
IC50 (AsPC-1 cells; [1]): < 10 nM

CON(C)C(=O)c1nn2c(c1Cl)CN(c1nc(OC[C@@]34CCCN3C/C(=C\F)C4)nc3c1COC(c1c(F)c(N)cc(Cl)c1C(F)(F)F)C3)CCC2 (some centres unmarked) [compound 463]
IC50 (AsPC-1 cells; [2]): 10 to 30 nM

Cc1c(C(=O)N(C)C)nn2c1CN(c1nc(OC[C@@]34CCCN3C/C(=C\F)C4)nc3c1CO[C@H](c1cc(N)cc(F)c1C(F)(F)F)C3)CCC2 [compound 417]
IC50 (AsPC-1 cells; [1]): < 10 nM

CC#Cc1cc(N)cc([C@@H]2Cc3nc(OC[C@@]45CCCN4C[C@H](F)C5)nc(N4CCCn5nc(C(=O)N(C)C)c(CC)c5C4)c3CO2)c1C(F)(F)F [compound 423]
IC50 (AsPC-1 cells; [1]): < 10 nM

CN(C)C(=O)c1nn2c(c1Cl)CN(c1nc(OC[C@@]34CCCN3C/C(=C\F)C4)nc3c1CO[C@@H](c1c(F)c(N)cc(Cl)c1C(F)(F)F)C3)CCC2 [247b, 5-((R)-7-(3-amino-5-chloro-2-fluoro-6-(trifluoromethyl)phenyl)-2-(((S,Z)-2-(fluoromethylene)tetrahydro-1H-pyrrolizin-7a(5H)-yl)methoxy)-7,8-dihydro-5H-pyrano[4,3-d]pyrimidin-4-yl)-3-chloro-N,N-dimethyl-5,6,7,8-tetrahydro-4H-pyrazolo[1,5-a][1,4]diazepine-2-carboxamide]
IC50 (AsPC-1 cells; [2]): > 500 nM | IC50 (AsPC-1 cells; [3]): 615 nM

Cc1cc(N)c(F)c([C@H]2Cc3nc(OC[C@@]45CCCN4C[C@H](F)C5)nc(N4CCCn5nc(C(=O)N(C)C)c(Cl)c5C4)c3CO2)c1C(F)(F)F [215b]
IC50 (AsPC-1 cells; [2]): 101 to 500 nM | IC50 (AsPC-1 cells; [3]): 132 nM

Cc1cc(N)c(F)c([C@@H]2Cc3nc(OC[C@@]45CCCN4C[C@H](F)C5)nc(N4CCCn5nc(C(=O)N(C)C)c(Cl)c5C4)c3CO2)c1C(F)(F)F [215a, 5-((S)-7-(3-amino-2-fluoro-5-methyl-6-(trifluoromethyl)phenyl)-2-(((2R,7aS)-2-fluorotetrahydro-1H-pyrrolizin-7a(5H)-yl)methoxy)-7,8-dihydro-5H-pyrano[4,3-d]pyrimidin-4-yl)-3-chloro-N,N-dimethyl-5,6,7,8-tetrahydro-4H-pyrazolo[1,5-a][1,4]diazepine-2-carboxamide]
IC50 (AsPC-1 cells; [1]): < 10 nM

CN(C)C(=O)c1nn2c(c1Cl)CN(c1nc(OC[C@@]34CCCN3C/C(=C\F)C4)nc3c1CO[C@H](c1cc(N)ccc1C(F)(F)F)C3)CCC2 [compound 243]
IC50 (AsPC-1 cells; [2]): 10 to 30 nM | IC50 (AsPC-1 cells; [3]): 10.7 nM

CC#Cc1cc(N)cc([C@@H]2Cc3nc(OC[C@@]45CCCN4C[C@H](F)C5)nc(N4CCCn5nc(C(=O)N(C)C)cc5C4)c3CO2)c1C(F)(F)F [compound 408]
IC50 (AsPC-1 cells; [2]): 10 to 30 nM

Cc1cc(N)cc([C@@H]2Cc3nc(OC[C@@]45CCCN4C/C(=C\F)C5)nc(N4CCCn5nc(C(=O)N6CCC6)cc5C4)c3CO2)c1C(F)(F)F [compound 403]
IC50 (AsPC-1 cells; [2]): 10 to 30 nM

Nc1ccc(C(F)(F)F)c([C@@H]2Cc3nc(OC[C@@]45CCCN4C[C@H](F)C5)nc(N4CCNC(=O)CC4)c3CO2)c1F [compound 205]
IC50 (AsPC-1 cells; [2]): > 500 nM | IC50 (AsPC-1 cells; [3]): > 10000 nM

CON(C)C(=O)c1nn2c(c1Cl)CN(c1nc(OC[C@@]34CCCN3C/C(=C\F)C4)nc3c1CO[C@H](c1c(F)c(N)cc(Cl)c1C(F)(F)F)C3)CCC2 [compound 461]
IC50 (AsPC-1 cells; [1]): < 10 nM

CN(C)C(=O)c1nn2c(c1Cl)CN(c1nc(OC[C@]34CCCN3C[C@@H](C=C(F)F)C4)nc3c1COC(c1c(F)c(N)cc(Cl)c1C(F)(F)F)C3)CCC2 (some centres unmarked) [compound 460]
IC50 (AsPC-1 cells; [1]): < 10 nM

CN(C)C(=O)c1nn2c(c1Cl)CN(c1nc(OCC34CCCN3CC(=C(F)F)C4)nc3c1COC(c1c(C(F)(F)F)ccc(N)c1F)C3)CCC2 (centres unmarked) [compound 231]
IC50 (AsPC-1 cells; [2]): 31 to 100 nM | IC50 (AsPC-1 cells; [3]): 56 nM

Cc1cc(N)cc([C@@H]2Cc3nc(OC[C@@]45CCCN4C/C(=C\F)C5)nc(N4CCCn5nc(C(=O)N(C)C)cc5C4)c3CO2)c1C(F)(F)F [compound 302, 5-((S)-7-(5-amino-3-methyl-2-(trifluoromethyl)phenyl)-2-(((S,Z)-2-(fluoromethylene)tetrahydro-1H-pyrrolizin-7a(5H)-yl)methoxy)-7,8-dihydro-5H-pyrano[4,3-d]pyrimidin-4-yl)-N,N-dimethyl-5,6,7,8-tetrahydro-4H-pyrazolo[1,5-a][1,4]diazepine-2-carboxamide]
IC50 (AsPC-1 cells; [1]): < 10 nM

CN(C)C(=O)c1nn2c(c1Cl)CN(c1nc(OC[C@@]34CCCN3C[C@H](F)C4)nc3c1CO[C@H](c1c(C(F)(F)F)cc(F)c(N)c1F)C3)CCC2 [216a, 5-((S)-7-(3-amino-2,4-difluoro-6-(trifluoromethyl)phenyl)-2-(((2R,7aS)-2-fluorotetrahydro-1H-pyrrolizin-7a(5H)-yl)methoxy)-7,8-dihydro-5H-pyrano[4,3-d]pyrimidin-4-yl)-3-chloro-N,N-dimethyl-5,6,7,8-tetrahydro-4H-pyrazolo[1,5-a][1,4]diazepine-2-carboxamide]
IC50 (AsPC-1 cells; [2]): 31 to 100 nM | IC50 (AsPC-1 cells; [3]): 49 nM

CC#Cc1cc(N)cc([C@@H]2Cc3nc(OC[C@@]45CCCN4C/C(=C\F)C5)nc(N4CCCn5nc(C(=O)N(C)C)c(C)c5C4)c3CO2)c1C(F)(F)F [compound 426]
IC50 (AsPC-1 cells; [1]): < 10 nM

CN(C)C(=O)c1nn2c(c1Cl)CN(c1nc(OC[C@@]34CCCN3C/C(=C\F)C4)nc3c1CO[C@H](c1cc(N)cc(F)c1C(F)(F)F)C3)CCC2 [compound 410]
IC50 (AsPC-1 cells; [1]): < 10 nM

CN(C)C(=O)c1nn2c(c1Cl)CN(c1nc(OC[C@]34CCCN3C[C@@H](C=C(F)F)C4)nc3c1CO[C@H](c1c(F)c(N)cc(Cl)c1C(F)(F)F)C3)CCC2 [compound 459]
IC50 (AsPC-1 cells; [1]): < 10 nM

Cc1cc(N)cc([C@@H]2Cc3nc(OC[C@@]45CCCN4CC(=C(F)F)C5)nc(N4CCCn5nc(C(=O)N(C)C)c(C)c5C4)c3CO2)c1C(F)(F)F [compound 416]
IC50 (AsPC-1 cells; [1]): < 10 nM

CN(C)C(=O)c1nn2c(c1Cl)CN(c1nc(OC[C@@]34CCCN3C[C@H](F)C4)nc3c1CO[C@@H](c1c(F)c(N)cc(F)c1C(F)(F)F)C3)CCC2 [214b]
IC50 (AsPC-1 cells; [2]): > 500 nM | IC50 (AsPC-1 cells; [3]): 1550 nM

CN(C)C(=O)c1nn2c(c1Cl)CN(c1nc(OC[C@@]34CCCN3CC(=C(F)F)C4)nc3c1COC(c1cc(N)cc(Cl)c1C(F)(F)F)C3)CCC2 (some centres unmarked) [compound 245]
IC50 (AsPC-1 cells; [1]): < 10 nM

CC#Cc1cc(N)cc([C@@H]2Cc3nc(OC[C@@]45CCCN4C/C(=C\F)C5)nc(N4CCCn5nc(C(=O)N(C)C)c(CC)c5C4)c3CO2)c1C(F)(F)F [compound 424]
IC50 (AsPC-1 cells; [1]): < 10 nM

Cc1c(C(=O)N(C)C)nn2c1CN(c1nc(OC[C@@]34CCCN3C/C(=C\F)C4)nc3c1CO[C@H](c1c(F)c(N)cc(Cl)c1C(F)(F)F)C3)CCC2 [compound 440]
IC50 (AsPC-1 cells; [1]): < 10 nM

Cc1c(C(=O)N(C)C)nn2c1CN(c1nc(OC[C@@]34CCCN3C/C(=C\F)C4)nc3c1CO[C@H](c1cc(N)cc(Cl)c1C(F)(F)F)C3)CCC2 [compound 300, 5-((S)-7-(5-amino-3-chloro-2-(trifluoromethyl)phenyl)-2-(((S,Z)-2-(fluoromethylene)tetrahydro-1H-pyrrolizin-7a(5H)-yl)methoxy)-7,8-dihydro-5H-pyrano[4,3-d]pyrimidin-4-yl)-N,N,3-trimethyl-5,6,7,8-tetrahydro-4H-pyrazolo[1,5-a][1,4]diazepine-2-carboxamide]
IC50 (AsPC-1 cells; [1]): < 10 nM

CC#Cc1cc(N)cc([C@@H]2Cc3nc(OC[C@@]45CCCN4C/C(=C\F)C5)nc(N4CCCn5nc(C(=O)N(C)C)c(Cl)c5C4)c3CO2)c1C(F)(F)F [compound 427]
IC50 (AsPC-1 cells; [1]): < 10 nM
